Source: PubChem BioAssay (NCI)
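Cells were grown in 96-well plates and exposed to each compound for 48 hours at five concentrations; endpoints were interpolated linearly between bracketing concentrations, or set to the highest concentration if not reached. TGI marks complete inhibition of growth.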

How the values were obtained:
Test in all cases: inhibition of tumour cell growth, NCI panel, 48 h
[1] = tested on: HCC-2998 colon
[2] = tested on: SK-MEL-28 melanoma
[3] = tested on: DU-145 prostate
[4] = tested on: K-562 leukemia
[5] = tested on: NCI-H23 lung
[6] = tested on: UACC-257 melanoma
[7] = tested on: UO-31 renal
[8] = tested on: 786-0 renal
[9] = tested on: CCRF-CEM leukemia
[10] = tested on: SR leukemia
[11] = tested on: NCI/ADR-RES ovarian
[12] = tested on: M14 melanoma
[13] = tested on: SW-620 colon
[14] = tested on: SNB-75 CNS
[15] = tested on: MDA-MB-231 breast
[16] = tested on: A549 NSCLC
[17] = tested on: SN12C renal
[18] = tested on: SNB-19 CNS
[19] = tested on: CAKI-1 renal
[20] = tested on: NCI-H522 lung
[21] = tested on: MDA-MB-435
[22] = tested on: PC-3 prostate
[23] = tested on: SF-295 CNS
[24] = tested on: RPMI-8226 leukemia
[25] = tested on: SF-539 CNS
[26] = tested on: UACC-62 melanoma
[27] = tested on: COLO 205 colon
[28] = tested on: HOP-92 NSCLC
[29] = tested on: SK-MEL-2 melanoma
[30] = tested on: SK-MEL-5 melanoma
[31] = tested on: HCT-116 colon
[32] = tested on: MOLT-4 leukemia
[33] = tested on: RXF 393 renal
[34] = tested on: A498 renal
[35] = tested on: MALME-3M melanoma
[36] = tested on: LOX IMVI melanoma
[37] = tested on: MCF7 breast
[38] = tested on: SK-OV-3 ovarian
[39] = tested on: SF-268 CNS
[40] = tested on: HT29 colon
[41] = tested on: T-47D breast
[42] = tested on: OVCAR-4 ovarian
[43] = tested on: OVCAR-3 ovarian
[44] = tested on: HCT-15 colon
[45] = tested on: HOP-62 NSCLC
[46] = tested on: KM12 colon
[47] = tested on: TK-10 renal
[48] = tested on: EKVX NSCLC
[49] = tested on: NCI-H460 lung
[50] = tested on: ACHN renal
[51] = tested on: IGROV1 ovarian
[52] = tested on: OVCAR-5 ovarian
[53] = tested on: BT-549 breast
[54] = tested on: MDA-N
[55] = tested on: NCI-H226 lung
[56] = tested on: HL-60(TB) leukemia
[57] = tested on: OVCAR-8 ovarian
[58] = tested on: HS 578T breast
[59] = tested on: U251 CNS

Work on `CC(=O)O[C@@H]1C(C2CCCCC2)C=[N+]([O-])O[C@@H]1OC1CCCC1(c1ccccc1)c1ccccc1` (some centres not stated) yielded a TGI [1] of 26 µM, a TGI [2] of 5.84 µM and a TGI [3] of 25.3 µM. It also gave a TGI [4] of over 40.2 µM, a TGI [5] of 26.2 µM and a TGI [6] of 36.5 µM. The TGI [7] was 20.4 µM, the TGI [8] was 16.8 µM and the TGI [9] was 7.49 µM. It also gave a TGI [10] of over 22.8 µM, a TGI [11] of 29.3 µM and a TGI [12] of 12.1 µM. It also gave a TGI [13] of 4.63 µM, a TGI [14] of 17.6 µM and a TGI [15] of 27.1 µM. For the same compound, the TGI [16] was 28.5 µM, the TGI [17] was 21.2 µM and the TGI [18] was 30.5 µM. For the same compound, the TGI [19] was 10.4 µM, the TGI [20] was 4.1 µM and the TGI [21] was 9.04 µM. The TGI [22] was 23 µM, the TGI [23] was 27.4 µM and the TGI [24] was 7.91 µM. The TGI [25] was 14.2 µM, the TGI [26] was 19.4 µM and the TGI [27] was 17.7 µM. It also gave a TGI [28] of 23.1 µM, a TGI [29] of 27.8 µM and a TGI [30] of 28 µM. It also gave a TGI [31] of 15.5 µM, a TGI [32] of over 27.6 µM and a TGI [33] of 6.82 µM. For the same compound, the TGI [34] was 17.1 µM, the TGI [35] was 9.05 µM and the TGI [36] was 3.48 µM. For the same compound, the TGI [37] was 12 µM, the TGI [38] was 29.1 µM and the TGI [39] was 17.6 µM. For the same compound, the TGI [40] was 5.65 µM, the TGI [41] was 10.1 µM and the TGI [42] was 21.1 µM. It also gave a TGI [43] of 10.3 µM, a TGI [44] of 4.21 µM and a TGI [45] of 29.3 µM. For the same compound, the TGI [46] was 22.9 µM, the TGI [47] was 28.3 µM and the TGI [48] was 30.2 µM. For the same compound, the TGI [49] was 30 µM, the TGI [50] was 4.84 µM and the TGI [51] was 8.83 µM. For the same compound, the TGI [52] was 30.7 µM, the TGI [53] was 24.8 µM and the TGI [54] was 12.2 µM. It also gave a TGI [55] of 32.1 µM, a TGI [56] of 3.4 µM and a TGI [57] of 4.22 µM. It also gave a TGI [58] of 27.8 µM and a TGI [59] of 26.1 µM.
`C=C1C(=O)O[C@@H]2C[C@@H]3[C@]4(CC[C@]5(C)[C@@H]([C@H](C)CC/C=C(\C)C=O)CC[C@@]35C)C[C@]4(CCC(=O)OC)[C@H]12` gave a TGI [1] of 4.1 µM, a TGI [2] of 3.99 µM and a TGI [3] of 3.31 µM. It also gave a TGI [4] of 2.67 µM, a TGI [5] of 3.77 µM and a TGI [6] of 1.13 µM. For the same compound, the TGI [7] was 3.53 µM, the TGI [8] was 3.23 µM and the TGI [9] was 0.617 µM. The TGI [10] was 2.32 µM, the TGI [11] was 7.99 µM and the TGI [12] was 2.91 µM. The TGI [13] was 4.11 µM, the TGI [14] was 4.51 µM and the TGI [15] was 3.66 µM. For the same compound, the TGI [16] was 13.9 µM, the TGI [17] was 3.85 µM and the TGI [18] was 3.9 µM. For the same compound, the TGI [19] was 6.7 µM, the TGI [20] was 8.91 µM and the TGI [21] was 3.16 µM. For the same compound, the TGI [22] was 4.48 µM, the TGI [23] was 4.54 µM and the TGI [24] was 1.22 µM. For the same compound, the TGI [25] was 4.22 µM, the TGI [26] was 3.06 µM and the TGI [27] was 5.64 µM. It also gave a TGI [28] of 3.88 µM, a TGI [29] of 3.43 µM and a TGI [30] of 2.3 µM. The TGI [31] was 2.03 µM, the TGI [32] was 2.94 µM and the TGI [33] was 3.56 µM. For the same compound, the TGI [34] was 5.33 µM, the TGI [35] was 3.05 µM and the TGI [36] was 2.61 µM. The TGI [37] was 2.9 µM, the TGI [38] was 6.72 µM and the TGI [39] was 2.73 µM. For the same compound, the TGI [40] was 11 µM, the TGI [41] was 4.93 µM and the TGI [42] was 3.62 µM. It also gave a TGI [43] of 3.02 µM, a TGI [44] of 3.71 µM and a TGI [45] of 4.21 µM. For the same compound, the TGI [46] was 3.89 µM, the TGI [47] was 3.99 µM and the TGI [48] was 7.55 µM. The TGI [49] was 9.13 µM, the TGI [50] was 3.89 µM and the TGI [51] was 4.63 µM. It also gave a TGI [52] of 3.96 µM, a TGI [53] of 5.01 µM and a TGI [54] of 3.42 µM. The TGI [55] was 10.8 µM, the TGI [56] was 1.29 µM and the TGI [57] was 2.15 µM. It also gave a TGI [58] of 6.77 µM and a TGI [59] of 2.86 µM.
With `CCOC(=O)Oc1ccc(C(CNC(C)C)OC(=O)OCC)cc1OC(=O)OCC` (configuration not stated) the TGI [1] was over 100 µM, the TGI [2] was over 100 µM and the TGI [3] was over 100 µM. It also gave a TGI [4] of over 100 µM, a TGI [5] of over 100 µM and a TGI [6] of over 100 µM. The TGI [7] was over 100 µM, the TGI [8] was over 100 µM and the TGI [9] was over 100 µM. The TGI [10] was over 100 µM, the TGI [11] was over 100 µM and the TGI [12] was over 100 µM. The TGI [13] was over 100 µM, the TGI [14] was over 100 µM and the TGI [15] was over 100 µM. It also gave a TGI [16] of over 100 µM, a TGI [17] of over 100 µM and a TGI [18] of over 100 µM. The TGI [19] was over 100 µM, the TGI [20] was over 100 µM and the TGI [21] was over 100 µM. For the same compound, the TGI [22] was over 100 µM, the TGI [23] was over 100 µM and the TGI [24] was over 100 µM. It also gave a TGI [25] of over 100 µM, a TGI [26] of over 100 µM and a TGI [27] of over 100 µM. For the same compound, the TGI [28] was over 100 µM, the TGI [29] was over 100 µM and the TGI [30] was over 100 µM. The TGI [31] was over 100 µM, the TGI [32] was over 100 µM and the TGI [33] was over 100 µM. For the same compound, the TGI [34] was over 100 µM, the TGI [35] was over 100 µM and the TGI [36] was over 100 µM. It also gave a TGI [37] of over 100 µM, a TGI [38] of over 100 µM and a TGI [39] of over 100 µM. It also gave a TGI [40] of over 100 µM, a TGI [41] of over 100 µM and a TGI [42] of over 100 µM. It also gave a TGI [43] of over 100 µM, a TGI [44] of over 100 µM and a TGI [45] of over 100 µM. It also gave a TGI [46] of over 100 µM, a TGI [47] of over 100 µM and a TGI [48] of over 100 µM. The TGI [49] was over 100 µM, the TGI [50] was over 100 µM and the TGI [51] was over 100 µM. The TGI [52] was over 100 µM, the TGI [53] was over 100 µM and the TGI [54] was over 100 µM. It also gave a TGI [55] of over 100 µM, a TGI [56] of 98.5 µM and a TGI [57] of over 100 µM. For the same compound, the TGI [58] was over 100 µM and the TGI [59] was over 100 µM.
